Test results taken from patent publication US20020111274A1, “1-alkyl-3-[1-(substituted phenyl) benzotriazol-6-yl] uracils” (BASF Aktiengesellschaft, priority 2000, published 2002).

Assays:
Design in all cases: scale not given here
ABUTH Velvetleaf [1] = test: Postemergence herbicidal evaluation, ABUTH; assay type: in vivo, Abutilon theophrasti, Medic.; details: postemergence spray, rated about two-three weeks after treatment
How it was run: (§1)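 Two-week-old seedlings sprayed postemergence with compound in 80/20 acetone/water plus 1.0% methylated seed oil, at about 0.006–0.400 kg/ha, through a nozzle at 40 psi. Plants kept under greenhouse conditions and visually rated about two–three weeks after treatment; ratings from repeat tests averaged.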

AMBEL Ragweed, Common [2] = test: Postemergence herbicidal evaluation, AMBEL; assay type: in vivo, Ambrosia artemisifolia, L.; details: postemergence spray, rated about two-three weeks after treatment
How it was run: as §1

CASOB Sicklepod [3] = test: Postemergence herbicidal evaluation, CASOB; assay type: in vivo, Cassia obtusifolia, L.; details: postemergence spray, rated about two-three weeks after treatment
How it was run: as §1

[4] = tested on: CHEAL Lambsquarters, Common; test: Postemergence herbicidal evaluation, CHEAL; assay type: in vivo, Chenopodium album, L.; details: postemergence spray, rated about two-three weeks after treatment
How it was run: as §1

ECHOG Barnyardgrass [5] = test: Postemergence herbicidal evaluation, ECHOG; assay type: in vivo, Echinochloa crus-galli, (L.) Beau; details: postemergence spray, rated about two-three weeks after treatment
How it was run: as §1

GALAP Galium [6] = test: Postemergence herbicidal evaluation, GALAP; assay type: in vivo, Galium aparine; details: postemergence spray, rated about two-three weeks after treatment
How it was run: as §1

[7] = tested on: IPOHE Morningglory, Ivyleaf; test: Postemergence herbicidal evaluation, IPOHE; assay type: in vivo, Ipomoea hederacea, (L.) Jacq.; details: postemergence spray, rated about two-three weeks after treatment
How it was run: as §1

SETVI Foxtail, Green [8] = test: Postemergence herbicidal evaluation, SETVI; assay type: in vivo, Setaria viridis, (L.) Beau; details: postemergence spray, rated about two-three weeks after treatment
How it was run: as §1

GLXMAW Soybean, Williams [9] = test: Postemergence herbicidal evaluation, GLXMAW; assay type: in vivo, Glycine max, (L.) Merr. cv Williams; details: postemergence spray, rated about two-three weeks after treatment
How it was run: as §1

[10] = tested on: TRZAWR Wheat, Winter, cv Riband; test: Postemergence herbicidal evaluation, TRZAWR; assay type: in vivo, Triticum aestivum; details: postemergence spray, rated about two-three weeks after treatment
How it was run: as §1

ORYSAT Rice, Tebonnet [11] = test: Postemergence herbicidal evaluation, ORYSAT; assay type: in vivo, Oryza sativa, (L.); details: postemergence spray, rated about two-three weeks after treatment
How it was run: as §1

ZEAMX Corn, Field [12] = test: Postemergence herbicidal evaluation, ZEAMX; assay type: in vivo, Zea mays, L. (Sammel-Bezeichnung); details: postemergence spray, rated about two-three weeks after treatment
How it was run: as §1

ABUTH Velvetleaf [13] = test: Preemergence herbicidal evaluation, ABUTH; assay type: in vivo, Abutilon theophrasti, Medic.; details: preemergence
How it was run: (§2)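 Preemergence soil spray: aqueous acetone, ~0.013–0.800 kg/ha, applied right after sowing (seed/potting-soil mix over ~1 in soil). Greenhouse, routine watering. Scored 4–5 wk post-treatment on a rating scale.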

AMBEL Ragweed, Common [14] = test: Preemergence herbicidal evaluation, AMBEL; assay type: in vivo, Ambrosia artemisifolia, L.; details: preemergence
How it was run: as §2

CASOB Sicklepod [15] = test: Preemergence herbicidal evaluation, CASOB; assay type: in vivo, Cassia obtusifolia, L.; details: preemergence
How it was run: as §2

[16] = tested on: CHEAL Lambsquarters, Common; test: Preemergence herbicidal evaluation, CHEAL; assay type: in vivo, Chenopodium album, L.; details: preemergence
How it was run: as §2

ECHOG Barnyardgrass [17] = test: Preemergence herbicidal evaluation, ECHOG; assay type: in vivo, Echinochloa crus-galli, (L.) Beau; details: preemergence
How it was run: as §2

GALAP Galium [18] = test: Preemergence herbicidal evaluation, GALAP; assay type: in vivo, Galium aparine; details: preemergence
How it was run: as §2

[19] = tested on: IPOHE Morningglory, Ivyleaf; test: Preemergence herbicidal evaluation, IPOHE; assay type: in vivo, Ipomoea hederacea, (L.) Jacq.; details: preemergence
How it was run: as §2

SETVI Foxtail, Green [20] = test: Preemergence herbicidal evaluation, SETVI; assay type: in vivo, Setaria viridis, (L.) Beau; details: preemergence
How it was run: as §2

GLXMAW Soybean, Williams [21] = test: Preemergence herbicidal evaluation, GLXMAW; assay type: in vivo, Glycine max, (L.) Merr. cv Williams; details: preemergence
How it was run: as §2

[22] = tested on: TRZAWR Wheat, Winter, cv Riband; test: Preemergence herbicidal evaluation, TRZAWR; assay type: in vivo, Triticum aestivum; details: preemergence
How it was run: as §2

ORYSAT Rice, Tebonnet [23] = test: Preemergence herbicidal evaluation, ORYSAT; assay type: in vivo, Oryza sativa, (L.); details: preemergence
How it was run: as §2

ZEAMX Corn, Field [24] = test: Preemergence herbicidal evaluation, ZEAMX; assay type: in vivo, Zea mays, L. (Sammel-Bezeichnung); details: preemergence
How it was run: as §2

COC(=O)COc1ccc(-n2nnc3cc(F)c(-n4c(=O)cc(C(F)(F)F)n(C)c4=O)cc32)c(C)c1 [Example 39]
3.5: Postemergence herbicidal rating GLXMAW (GLXMAW Soybean, Williams [9]; 0.008 kg/ha) | Postemergence herbicidal rating GLXMAW (GLXMAW Soybean, Williams [9]; 0.016 kg/ha) | Postemergence herbicidal rating TRZAWR ([10]; 0.032 kg/ha)
6.0: Postemergence herbicidal rating AMBEL (AMBEL Ragweed, Common [2]; 0.032 kg/ha)
0.0: Postemergence herbicidal rating AMBEL (AMBEL Ragweed, Common [2]; 0.008 kg/ha) | Postemergence herbicidal rating AMBEL (AMBEL Ragweed, Common [2]; 0.016 kg/ha) | Postemergence herbicidal rating CASOB (CASOB Sicklepod [3]; 0.008 kg/ha) | Postemergence herbicidal rating CASOB (CASOB Sicklepod [3]; 0.016 kg/ha) | Postemergence herbicidal rating CASOB (CASOB Sicklepod [3]; 0.032 kg/ha) | Postemergence herbicidal rating CHEAL ([4]; 0.008 kg/ha) | Postemergence herbicidal rating ECHCG (ECHOG Barnyardgrass [5]; 0.008 kg/ha) | Postemergence herbicidal rating ECHCG (ECHOG Barnyardgrass [5]; 0.016 kg/ha) | Postemergence herbicidal rating ECHCG (ECHOG Barnyardgrass [5]; 0.032 kg/ha) | Postemergence herbicidal rating GALAP (GALAP Galium [6]; 0.008 kg/ha) | Postemergence herbicidal rating GALAP (GALAP Galium [6]; 0.016 kg/ha) | Postemergence herbicidal rating SETVI (SETVI Foxtail, Green [8]; 0.008 kg/ha) | Postemergence herbicidal rating SETVI (SETVI Foxtail, Green [8]; 0.016 kg/ha) | Postemergence herbicidal rating SETVI (SETVI Foxtail, Green [8]; 0.032 kg/ha) | Postemergence herbicidal rating ORYSAT (ORYSAT Rice, Tebonnet [11]; 0.008 kg/ha) | ABUTH herbicidal rating (ABUTH Velvetleaf [13]; rate 0.016 kg/ha) | AMBEL herbicidal rating (AMBEL Ragweed, Common [14]; rate 0.016 kg/ha) | AMBEL herbicidal rating (AMBEL Ragweed, Common [14]; rate 0.032 kg/ha) | AMBEL herbicidal rating (AMBEL Ragweed, Common [14]; rate 0.062 kg/ha) | AMBEL herbicidal rating (AMBEL Ragweed, Common [14]; rate 0.125 kg/ha) | CASOB herbicidal rating (CASOB Sicklepod [15]; rate 0.016 kg/ha) | CASOB herbicidal rating (CASOB Sicklepod [15]; rate 0.032 kg/ha) | CASOB herbicidal rating (CASOB Sicklepod [15]; rate 0.062 kg/ha) | CASOB herbicidal rating (CASOB Sicklepod [15]; rate 0.125 kg/ha) | ECHCG herbicidal rating (ECHOG Barnyardgrass [17]; rate 0.016 kg/ha) | ECHCG herbicidal rating (ECHOG Barnyardgrass [17]; rate 0.032 kg/ha) | ECHCG herbicidal rating (ECHOG Barnyardgrass [17]; rate 0.062 kg/ha) | ECHCG herbicidal rating (ECHOG Barnyardgrass [17]; rate 0.125 kg/ha) | GALAP herbicidal rating (GALAP Galium [18]; rate 0.016 kg/ha) | GALAP herbicidal rating (GALAP Galium [18]; rate 0.032 kg/ha) | GALAP herbicidal rating (GALAP Galium [18]; rate 0.062 kg/ha) | IPOHE herbicidal rating ([19]; rate 0.016 kg/ha) | IPOHE herbicidal rating ([19]; rate 0.032 kg/ha) | IPOHE herbicidal rating ([19]; rate 0.062 kg/ha) | SETVI herbicidal rating (SETVI Foxtail, Green [20]; rate 0.016 kg/ha) | SETVI herbicidal rating (SETVI Foxtail, Green [20]; rate 0.032 kg/ha) | SETVI herbicidal rating (SETVI Foxtail, Green [20]; rate 0.062 kg/ha) | GLXMAW herbicidal rating (GLXMAW Soybean, Williams [21]; rate 0.016 kg/ha) | GLXMAW herbicidal rating (GLXMAW Soybean, Williams [21]; rate 0.032 kg/ha) | GLXMAW herbicidal rating (GLXMAW Soybean, Williams [21]; rate 0.062 kg/ha) | GLXMAW herbicidal rating (GLXMAW Soybean, Williams [21]; rate 0.125 kg/ha) | TRZAWR herbicidal rating ([22]; rate 0.016 kg/ha) | TRZAWR herbicidal rating ([22]; rate 0.032 kg/ha) | TRZAWR herbicidal rating ([22]; rate 0.062 kg/ha) | TRZAWR herbicidal rating ([22]; rate 0.125 kg/ha) | ORYSAT herbicidal rating (ORYSAT Rice, Tebonnet [23]; rate 0.016 kg/ha) | ORYSAT herbicidal rating (ORYSAT Rice, Tebonnet [23]; rate 0.032 kg/ha) | ORYSAT herbicidal rating (ORYSAT Rice, Tebonnet [23]; rate 0.062 kg/ha) | ZEAMX herbicidal rating (ZEAMX Corn, Field [24]; rate 0.016 kg/ha) | ZEAMX herbicidal rating (ZEAMX Corn, Field [24]; rate 0.032 kg/ha) | ZEAMX herbicidal rating (ZEAMX Corn, Field [24]; rate 0.062 kg/ha) | ZEAMX herbicidal rating (ZEAMX Corn, Field [24]; rate 0.125 kg/ha)
7.5: Postemergence herbicidal rating ZEAMX (ZEAMX Corn, Field [12]; 0.016 kg/ha) | Postemergence herbicidal rating ZEAMX (ZEAMX Corn, Field [12]; 0.032 kg/ha) | Postemergence herbicidal rating ZEAMX (ZEAMX Corn, Field [12]; 0.062 kg/ha)
2.5: Postemergence herbicidal rating TRZAWR ([10]; 0.008 kg/ha)
1.0: Postemergence herbicidal rating ORYSAT (ORYSAT Rice, Tebonnet [11]; 0.032 kg/ha)
0.5: Postemergence herbicidal rating ORYSAT (ORYSAT Rice, Tebonnet [11]; 0.016 kg/ha)
7.0: Postemergence herbicidal rating AMBEL (AMBEL Ragweed, Common [2]; 0.062 kg/ha) | Postemergence herbicidal rating CHEAL ([4]; 0.062 kg/ha) | Postemergence herbicidal rating ZEAMX (ZEAMX Corn, Field [12]; 0.008 kg/ha) | GALAP herbicidal rating (GALAP Galium [18]; rate 0.125 kg/ha)
5.5: Postemergence herbicidal rating TRZAWR ([10]; 0.062 kg/ha)
4.0: Postemergence herbicidal rating GLXMAW (GLXMAW Soybean, Williams [9]; 0.032 kg/ha) | Postemergence herbicidal rating ORYSAT (ORYSAT Rice, Tebonnet [11]; 0.062 kg/ha) | SETVI herbicidal rating (SETVI Foxtail, Green [20]; rate 0.125 kg/ha)
5.0: Postemergence herbicidal rating GLXMAW (GLXMAW Soybean, Williams [9]; 0.062 kg/ha) | ABUTH herbicidal rating (ABUTH Velvetleaf [13]; rate 0.032 kg/ha)
3.0: Postemergence herbicidal rating ECHCG (ECHOG Barnyardgrass [5]; 0.062 kg/ha) | Postemergence herbicidal rating GALAP (GALAP Galium [6]; 0.032 kg/ha) | Postemergence herbicidal rating GALAP (GALAP Galium [6]; 0.062 kg/ha) | Postemergence herbicidal rating TRZAWR ([10]; 0.016 kg/ha) | CHEAL herbicidal rating ([16]; rate 0.016 kg/ha) | CHEAL herbicidal rating ([16]; rate 0.032 kg/ha) | IPOHE herbicidal rating ([19]; rate 0.125 kg/ha) | ORYSAT herbicidal rating (ORYSAT Rice, Tebonnet [23]; rate 0.125 kg/ha)
9.0: Postemergence herbicidal rating ABUTH (ABUTH Velvetleaf [1]; 0.008 kg/ha) | Postemergence herbicidal rating ABUTH (ABUTH Velvetleaf [1]; 0.016 kg/ha) | Postemergence herbicidal rating ABUTH (ABUTH Velvetleaf [1]; 0.032 kg/ha) | Postemergence herbicidal rating ABUTH (ABUTH Velvetleaf [1]; 0.062 kg/ha) | Postemergence herbicidal rating IPOHE ([7]; 0.008 kg/ha) | Postemergence herbicidal rating IPOHE ([7]; 0.032 kg/ha) | Postemergence herbicidal rating IPOHE ([7]; 0.062 kg/ha) | ABUTH herbicidal rating (ABUTH Velvetleaf [13]; rate 0.062 kg/ha) | ABUTH herbicidal rating (ABUTH Velvetleaf [13]; rate 0.125 kg/ha) | CHEAL herbicidal rating ([16]; rate 0.062 kg/ha) | CHEAL herbicidal rating ([16]; rate 0.125 kg/ha)
2.0: Postemergence herbicidal rating CASOB (CASOB Sicklepod [3]; 0.062 kg/ha) | Postemergence herbicidal rating CHEAL ([4]; 0.016 kg/ha) | Postemergence herbicidal rating CHEAL ([4]; 0.032 kg/ha) | Postemergence herbicidal rating SETVI (SETVI Foxtail, Green [8]; 0.062 kg/ha)
8.0: Postemergence herbicidal rating IPOHE ([7]; 0.016 kg/ha)
